Results: US9676829B2, “Antibacterial polypeptides and use thereof” (Oslo Universitetssykehus HF, priority 2009, dated 2017)

What was measured:
Format in all cases: cell-based, Escherichia coli
[1] = tested on: E. coli cells; assay: Membrane depolarization, DiBAC4(3) uptake by flow cytometry after IPTG induction; details: 5 and 20 minutes after 1 mM IPTG
Experimental: Cells were grown to OD600≅0.4 in LB and then induced with IPTG to a final concentration of 1 mM. At 0, 5 and 20 minutes culture samples were diluted 1:10 in filtered AB minimal medium (Clark and MaalØe, 1967) +10 μg ml-1 DiBAC4(3) (Sigma-Aldrich). After 20 minutes incubation in the dark at room temperature, cells were analysed in a Flowcytometry LSRII (Becton Dickinson) equipped with an argon ion laser and a krypton laser (both Spectra Physics). DiBAC4(3) was detected in channel 580 using 488 nm laser. Parameters were collected as logarithmic signals. The two populations were easily separated in each staining experiment. The data obtained was analyzed by winMDI software.
To examine whether DinQ affects membrane polarization, the inventors tested the ability of E. coli cells with dinQ containing plasmids to take up the dye DiBAC4(3) [bis-(1,3-dibarbituric acid)-trimethine oxanol]. The dye enters cells upon membrane depolarization leading to increased fluorescence. Cells were taken 5 and 20 minutes after induction of DinQ expression with IPTG, incubated with DiBAC4(3) for 20 min and analyzed by flow cytometry (FIG. 9).

[2] = tested on: E. coli ER2566; assay: UV radiation survival spot assay of dinQ variants; details: UV irradiation of 24 J/m2, compared with intact dinQ (pBK444)
Source text: (§1) The spots in FIG. 22 represent E. coli ER2566 dilutions in the range of 100-10-5 (left to right). UV irradiation of 24 J/m2 was used to induce dinQ toxicity (right picture), and was compared to the unirradiated control assay (left picture). Control cells carry the vector plasmid (pKK232-8), and cells carrying the plasmid encoding intact dinQ (pBK444), were used as reference.
as §1, with “spots” for “spots in”, “23” for “22”, “10^0-10^−5” for “100-10-5”, “reference (see FIG. 23).” for “reference.”

[3] = tested on: wild type E. coli; assay: IPTG sensitivity spot assay, DinQ ORFs over-expressed from pET28b(+)
Experimental: A. IPTG sensitivity in strains plated on IPTG. An aliquot or serially diluted (10-1-10-5 cells ml-1) log-phase cultures of wild type E. coli with empty expression vector pET28b(+) or vector constructs with alternative DinQ ORFs were spotted onto LB plates containing no IPTG (left panel) or 0.6 mM IPTG (right panel). The […] indicates a toxic effect with DinQ ORF 2-5 when the translation is forced by IPTG induction.
Expression plasmids pET28b-ORF1, pET28b-ORF2, pET28b-ORF3, pET28b-ORF4 and pET28b-ORF5 contains the DinQ ORF1, ORF2, ORF3, ORF4 and ORFS open reading frames inserted in the NcoI-BamHI restriction sites of the pET28b(+) vector (Novagen).
The mechanism underlying the UV sensitive phenotype of DinQ in a multicopy situation or under upregulation in an agrB mutant is unknown. The dinQ gene contain two putative open reading frames in which one of the reading frames encode three putative start codons (ii-iv, see FIG. 1C). […] To examine if any of the open reading frames mediate the UV sensitivity each reading frame were cloned into the expression vector pET28b(+) and expressed under control of IPTG (FIG. 4A). […] Next, DinQ ORF […] expression was titrated with increasing concentrations of IPTG (FIG. 4C) showing that ORF IV is highly toxic to the cells at very low doses of IPTG induction. […]

[4] = tested on: agrB mutant BK4043; assay: Intracellular ATP concentration, luciferase-based assay; details: agrB mutant with up-regulated DinQ peptide vs wild type AB1157
Experimental: Aliquots of cells were harvested before and 20 minutes after induction with IPTG to a final concentration of 1 mM and washed once in 50 mM Tris-Acetate pH 7.75. ATP was extracted from washed cells by 1% (TCA) trichloraceticacid in 50 mM Tris-Acetate pH 7.75 for 10 minutes. Tris-acetate buffer (1 ml) was added 1:10 to obtain optimal pH of 7.75 before mixing with rL/L reagent (ENLITEN ATP assay, Promega) at room temperature. The amount of ATP extracted (RLU value) was measured with 20/20 Luminometer (Turner Designs) and related to the OD600 for each sample.
The effect of DinQ peptide on the intracellular ATP concentration was measured using a quantitative luciferase-based assay (see materials and methods for details). […] Extracts from uninduced and SOS-induced agrB cells and wild-type cells, AB1157, were analysed 20 minutes after exposure by UV irradiation (sublethal doses).

[5] = tested on: E. coli; assay: Microscopy of E. coli overexpressing dinQ ORF5 upon IPTG induction; details: 4 h after IPTG 1 mM
Experimental: E. coli capable of overexpressing dinQ ORF5 were plated (LB agar 2%, kan, tet, amp) and incubated (O/N, 37° C.). A single colony was picked and grown (37° C., 16 h, 200 rpm) in liquid media (LB, kan, tet, amp). The culture was then adjusted to OD600=0.03 in fresh media (LB, kan, tet, amp) and allowed to grow (37° C., 16 h, 200 rpm) back to OD600=0.5 before induction with IPTG (1 mM). After incubation (4 h, 37° C., 200 rpm) an aliquot (200 μl) of the E. coli suspension was removed and fixed in MeOH (1 ml, −20° C.). After centrifugation (2000 rpm, 4° C., 5 min) the cells were aspirated and re-suspend in NaCl (0.9% in H2O). The samples were then spotted onto slides and allowed to dry (42° C.). The slides were then washed 3×H2O and allowed to air dry (RT) before microscopy (see FIG. 20).

[6] = tested on: E. coli; assay: Small colony variant count after IPTG induction of dinQ ORF5; details: IPTG 1 mM
Experimental: E. coli capable of overexpressing dinQ ORFS were incubated (O/N, 37° C., 200 rpm) before subculturing to OD600=0.01 (LB, kan, tet, amp). After incubation (37° C., 200 rpm) to OD600=0.5 expression of the toxin was either induced with IPTG (1 mM) or not. At time points after the addition the bacteria were serially diluted (×10) and plated (LB, 2% agar). After incubation (16 h, 37° C.) the plates were counted. Colony size was estimated and those 10× smaller than a typical colony were counted as a small colony variant SCV (see FIG. 21).

Row | Substance | effect on membrane integrity / depolarization (DiBAC4(3) uptake) [1] | toxicity of the dinQ peptide upon UV induction [2] | further results
1 | DinQ ORF2: amino acid sequence of the dinQ II polypeptide (ORF-II), 49 aa (MRRDRQWMSKRMHSHSIAWRKRVIDKAIIVLGALIALLELIRFLLQLLN; listed as Escherichia coli) | rapid and dramatic effects on the membrane integrity | – | –
2 | MIDKAIIVLGAIVALLELIRFLLQLLN [L12I and I13V] | – | maintain the toxicity | –
3 | MIDKAIIVLGALIALLELIRFLIQLLN (L23I variant of dinQ ORF V peptide) | – | maintain the toxicity | –
4 | MIDKAIIVLGALIALLELIRFLLQLLN (listed as Escherichia coli) [ORF5, DinQ ORF-V peptide with N-terminal Met, form translated from GUG start codon, 27 aa] | rapid and dramatic effects on the membrane integrity | – | toxic/growth inhibitory effect on IPTG plates ([3]; pET28b(+) constructs, IPTG induction, absence of UV): strong toxicity; effect on membrane integrity / depolarization (DiBAC4(3) uptake) ([1]; listed as DinQ ORF5): most pronounced; effect on intracellular ATP [4]: impairs the energy supply in the form of ATP; effect on membrane integrity (ghost cells) by microscopy [5]: damages membrane integrity; colony phenotype after induction [6]: appearance of small colony variants (SCV)
5 | MIDKAIIVLKALIALLELIRFLLQLLN (G10K variant of dinQ ORF V peptide) | – | maintain the toxicity | –
6 | MIDKAIVVLGALIALLELIRFLLQLLN (I7V variant of dinQ ORF V peptide) | – | maintain the toxicity | –
7 | ORF3: amino acid sequence of the dinQ III polypeptide (ORF-III), 42 aa (MSKRMHSHSIAWRKRVIDKAIIVLGALIALLELIRFLLQLLN; listed as Escherichia coli) | rapid and dramatic effects on the membrane integrity | – | –
8 | ORF4: amino acid sequence of the dinQ IV polypeptide (ORF-IV), 38 aa (MHSHSIAWRKRVIDKAIIVLGALIALLELIRFLLQLLN; listed as Escherichia coli) | rapid and dramatic effects on the membrane integrity | – | toxicity on titration with increasing concentrations of IPTG ([3]; very low doses of IPTG induction): highly toxic
